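How tested: cells in 96-well plates exposed to compound for 48 hours at five concentrations. Here, GI50 denotes the concentration required for 50% inhibition of growth.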 Calls of active or inactive are those of the source. Cut-off read from the data, not from the text of the source: active = GI50 up to about 1.1 µM and inactive = higher.
How the values were obtained:
Assay in all cases: NCI anticancer screen, dose series, 48 h
[1] = system: NCI/ADR-RES
[2] = system: CCRF-CEM
[3] = system: PC-3
[4] = system: HT-29
[5] = system: HCT-116
[6] = system: SW-620
[7] = system: MDA-MB-435
[8] = system: COLO 205
[9] = system: HCC 2998
[10] = system: OVCAR-3
[11] = system: LOX IMVI
[12] = system: Malme-3M
[13] = system: IGROV-1
[14] = system: TK-10
[15] = system: MDA-N
[16] = system: DU-145
[17] = system: SK-MEL-2
[18] = system: UACC-62
[19] = system: A498
[20] = system: HOP-92

Measured: GI50

[O-][S+](CCc1ccccc1)Nc1ccccc1 (stereo not drawn)
inactive: [1] 58.5 µM | [2] > 100 µM | [3] > 100 µM | [4] > 100 µM | [5] > 100 µM | [6] > 100 µM | [7] > 100 µM | [8] > 100 µM | [9] > 100 µM | [10] > 100 µM | [11] > 100 µM | [12] > 100 µM | [13] > 100 µM | [14] > 100 µM | [15] > 100 µM | [16] > 100 µM

CC12CC(c3ccccc3O1)C(C(=O)Nc1ccc(Cl)cc1Cl)C(=O)N2 (stereo not drawn)
inactive: [1] 36.8 µM | [2] 15 µM | [3] 44 µM | [4] 40.1 µM | [5] 34.3 µM | [6] 24.8 µM | [7] 67.1 µM | [8] 64.6 µM | [17] > 100 µM | [18] > 100 µM | [9] 49.1 µM | [10] 38 µM | [11] 22.5 µM | [12] 39 µM | [13] 24.2 µM | [15] > 100 µM | [16] 27.6 µM

CC1C2Cc3ccc(O)cc3C1(C)CCN2C (stereo not drawn)
inactive: [1] > 100 µM | [2] > 100 µM | [3] > 100 µM | [4] > 100 µM | [5] > 100 µM | [6] > 100 µM | [7] > 100 µM | [8] > 100 µM | [17] > 100 µM | [18] > 100 µM | [19] > 100 µM | [9] > 100 µM | [10] > 100 µM | [11] > 100 µM | [12] > 100 µM | [13] > 100 µM | [14] > 100 µM | [15] > 100 µM | [16] > 100 µM

Oc1ccc(-c2c3ccccc3c(-c3ccc(OCCBr)cc3)c3ccccc23)cc1
inactive: [1] 19.6 µM | [2] 60.1 µM | [3] 27.4 µM | [4] 19.6 µM | [5] 37.2 µM | [6] 53.3 µM | [7] 21.7 µM | [8] 31.2 µM | [17] 22.2 µM | [18] 19.7 µM | [19] 23.2 µM | [9] 44.2 µM | [10] 14.6 µM | [11] 16.9 µM | [12] 14.7 µM | [13] 22 µM | [14] 34.5 µM | [15] 26.4 µM | [16] > 100 µM

COC(=O)C(/C(=N/NC(=O)c1ccncc1)C(=O)Nc1ccccc1OC)c1nc2ccc(Cl)cc2nc1O (stereo not drawn)
inactive: [20] > 100 µM | [1] > 100 µM | [2] > 10 µM | [3] > 100 µM | [4] > 100 µM | [5] 83.4 µM | [6] > 100 µM | [7] 44.3 µM | [17] > 100 µM | [18] > 100 µM | [19] > 100 µM | [10] > 100 µM | [11] > 100 µM | [12] > 100 µM | [13] 11 µM | [14] > 100 µM | [15] 47.2 µM

COc1ccc(OC)c(NCC(=O)Nn2cnc3ccc(S(=O)(=O)Nc4cc(OC)ccc4OC)cc3c2=O)c1
inactive: [20] > 100 µM | [1] > 100 µM | [2] 35.5 µM | [3] 37.5 µM | [4] 45.5 µM | [5] 32.6 µM | [6] > 100 µM | [7] 29.5 µM | [8] > 100 µM | [17] 35.4 µM | [18] > 100 µM | [9] 37.2 µM | [10] > 100 µM | [11] 41.1 µM | [12] > 100 µM | [13] > 100 µM | [14] > 100 µM | [15] 41.3 µM | [16] > 100 µM

CC(CNC(=O)c1ccccc1)(CNC(=O)c1ccccc1)[N+](=O)[O-]
inactive: [20] > 100 µM | [1] > 100 µM | [3] > 100 µM | [4] > 100 µM | [5] > 100 µM | [6] > 100 µM | [7] > 100 µM | [8] > 100 µM | [17] > 100 µM | [18] > 100 µM | [12] > 100 µM | [13] > 100 µM | [14] > 100 µM | [15] > 100 µM | [16] > 100 µM

CN1N=C(c2ccccc2)c2cc(Cl)ccc2N=C1N/N=C/c1ccc(N(C)C)cc1
inactive: [1] > 100 µM | [2] > 100 µM | [3] 58.5 µM | [4] > 100 µM | [5] > 100 µM | [6] > 100 µM | [7] > 100 µM | [8] > 100 µM | [18] > 100 µM | [9] > 100 µM | [10] > 100 µM | [13] > 100 µM | [14] > 100 µM | [15] > 100 µM | [16] > 100 µM

COC(=O)C(CC(C)C)NC(=O)C(NC(=O)c1ccc(-c2ccc(Cl)cc2Cl)o1)C(C)C (stereo not drawn)
inactive: [20] 14.2 µM | [1] 18.7 µM | [2] 12.2 µM | [3] 14.1 µM | [4] 15.3 µM | [5] 12.3 µM | [6] 28.8 µM | [7] 22.1 µM | [8] 17.7 µM | [17] 21.3 µM | [18] 13.1 µM | [9] 17.3 µM | [10] 16.3 µM | [11] 15.7 µM | [13] 18.7 µM | [14] 27.4 µM | [15] 20.2 µM | [16] 21.8 µM

O=S1(=O)OCCCOS(=O)(=O)C1(Br)Br
inactive: [1] > 100 µM | [2] > 100 µM | [3] > 100 µM | [4] > 100 µM | [5] > 100 µM | [6] > 100 µM | [7] > 100 µM | [8] > 100 µM | [17] > 100 µM | [18] > 100 µM | [10] > 100 µM | [11] > 100 µM | [12] > 100 µM | [14] > 100 µM | [15] > 100 µM | [16] > 100 µM

CN1CCCCC(C#N)(c2ccccc2)CC1 (stereo not drawn)
inactive: [20] > 100 µM | [1] > 100 µM | [2] > 100 µM | [3] > 100 µM | [4] > 100 µM | [5] > 100 µM | [6] > 100 µM | [8] > 100 µM | [19] > 100 µM | [9] > 100 µM | [12] > 100 µM | [13] > 100 µM | [14] > 100 µM | [15] > 100 µM | [16] > 100 µM

CCCCCCCCCCCCOCC1(COCCCCCCCCCCCC)COC(c2ccc(N)cc2)OC1
inactive: [1] > 100 µM | [3] > 100 µM | [4] > 100 µM | [5] > 100 µM | [6] > 100 µM | [7] > 100 µM | [17] > 100 µM | [18] > 100 µM | [19] > 100 µM | [9] > 100 µM | [10] > 100 µM | [11] > 100 µM | [12] > 100 µM | [13] > 100 µM | [14] > 100 µM | [15] > 100 µM | [16] > 100 µM

Source: ChEMBL document CHEMBL1201862, “PubChem BioAssay data set” (2004)
